Reference: patent US20160326540A1, “Methods and Compositions Employing a Sulfonylurea-Dependent Stabilization Domain” (PIONEER HI-BRED INTERNATIONAL, INC., priority 2013, published 2016)

How the values were obtained:
S. cereviseae BY4742 [1] = assay: GFP destabilization/re-stabilization assay of TetR::AcGFP fusions in yeast liquid culture +/- atc; assay type: cell-based, Saccharomyces cereviseae; details: TetR::AcGFP fusion, galactose induced, 6 hrs growth, FIG. 3
Text: The third mutation, 122D (Reichheld and Davidson 2006), is a constitutive mutation in the presence or absence of ligand. Both L17G and I22D lie in the DNA binding domain (DBD) whereas G96R is in alpha helix 6 within the ligand binding domain (LBD). To test the effect of these mutations for ligand gated stability a GFP destabilization/re-stabilization assay (FIG. 1) was created. To do this a fusion between the coding regions of TetR B (Wray et al. 1981) and AcGFP (Gurskaya et al. 2003) by PCR amplifying the TetR region from plasmid pVER7568 using primers REPS' and TetR::AcGFP Rev and the AcGFP coding region from plasmid pHD1010 with primers TetR::AcGFP For and AcGFP3′ (Table 2) was created. The PCR products were then combined and subjected to overlap extension PCR using primers REPS' and AcGFP3′. The resulting full length PCR fusion product was then cloned into the Galactose inducible yeast expression vector p415GAL (ATCC#87330) as an XbaI/HindIII fragment. […] 100 ul aliquots of resuspended cells were placed into clear bottom black 96-well plates and their fluorescence determined with a Typhoon Laser Image Scanner (GE: […]). […]

S. cereviseae BY4742 [2] = assay: GFP fluorescence of wt and L17G repressor::GFP fusions in yeast on agar +/- atc, ethametsulfuron or chlorsulfuron, incl. dose response; assay type: cell-based, Saccharomyces cereviseae; details: 5-10 uM atc, destabilized (L17G) fusion, FIG. 7
Text: Next, we wanted to determine if a similar ligand enhanced protein accumulation effect would translate to our SU repressor backbones. […] Given the number of changes to the parent sequence and the 100% change in ligand preference it was not clear if they would behave in a similar manner. […] This was done by PCR amplifying the above coding regions with primers REPS' and EsR(L3-23) Rev, EsR(L15-20) Rev, or CsR(L4-20) Rev (Table 2), digesting each PCR product with StuI/BamHI and cloning each product into StuI/BamHI digested backbone fragments of pHD1184 and pHD2012 to give both wt and L17G mutant DNA binding domain combinations, respectively for most of the SuR's (schematic in FIG. 4). The resulting vectors (Table 4) were then transformed into S. cereviseae BY4742 as for pHD1184 (above). Each strain was then grown overnight in YPD medium and the cultures arrayed in 96-well format such that there were four repeats of every strain per plate. The array was then stamped onto 40 ml DOBA agar supplemented with 2% galactose, 0.025% casamino acids, and either 10 uM atc, ethametsulfuron, chlorsulfuron or no addition as the control. The plates were grown two days at 30° C. and imaged using a Typhoon laser scanning imager (GE) with excitation and emission set at 488 and 520 nm respectively. […]

Row | Substance | accumulation of GFP compared to wt TetR (S. cereviseae BY4742 [1]) | GFP response to ligand (dose response) (S. cereviseae BY4742 [2]) [×]
1 | TetR(G96R) | significant negative impact | 
2 | TetR(L17G) | significant negative impact | ~10
